From US9944589B2, “Cycloproplyamine derivatives useful as inhibitors of histone demethylases KDM1A” (Istituto Europeo de Oncologia S.r.L., priority 2012, dated 2018)
Structures can show the parent of a compound that is named as a salt.

target: T1, human recombinant KDM1A (LSD1)/CoRest (Homo sapiens, UniProt O60341); assay: Assay of enzyme inhibition of KDM1A (LSD1), Amplex UltraRed/peroxidase coupled; type: biochemical; conditions: 15 min preincubation, 4.5 μM mono-methylated H3-K4 peptide, range classes, read-out: IC50 [μM], KDM1A inhibition assay
T1 construct: made in house; host or cells: E. coli
Description: The experiments were performed using a mono-methylated H3-K4 peptide containing 21 amino acids (custom synthesis done by Thermo Scientific) as substrate and in a 50 mM TRIS, pH 8, 0.05 mg/ml BSA buffer.
The demethylase activity was estimated under aerobic conditions and at RT by measuring the release of H2O2 produced during the catalytic process by the Amplex® UltraRed detection system coupled with peroxidase assay. Briefly, a fixed amount of KDM1A/CoRest complex was incubated at RT for 15 minutes in the absence and/or the presence of various concentrations of inhibitor (e.g. from 0 to 100 μM, depending on the inhibitor strength) and of Amplex® UltraRed detection system coupled with peroxidase assay. The inhibitors were tested twice in duplicates at each concentration. […] The conversion of the Amplex® Ultra Red reagent to resorufin was monitored in continuous by fluorescence (excitation at 540 nm, emission at 590 nm) using a microplate reader (Infinite 200, Tecan). Arbitrary units were used to measure the level of H2O2 produced in the absence and/or in the presence of inhibition. The maximum demethylase activity of KDM1A/CoRest was obtained in the absence of inhibitors and corrected for background fluorescence in the absence of KDM1A/CoRest. The IC50 was calculated using GraphPad Software.

**Q.** Which IC50 does the source give for `CC(C)[C@@]1(N)C[C@H]1c1ccccc1` (relative stereo) [Example A-7, trans-1-isopropyl-2-phenyl-cyclopropanamine hydrochloride] here?
**A.** 1 to 5 µM

**Q.** Which IC50 does the source give for `CC[C@@]1(N)C[C@H]1c1ccc(F)cc1` (relative stereo) [Example A-16, trans-1-ethyl-2-(4-fluorophenyl)cyclopropanamine hydrochloride] here?
**A.** 1 to 5 µM

**Q.** With `CC[C@@]1(N)C[C@H]1c1ccc(Cl)cc1` (relative stereo) [Example A-17, trans-1-ethyl-2-(4-chlorophenyl)cyclopropanamine; hydrochloride] as the molecule, how does the IC50 read?
**A.** 0.1 to 1 µM

**Q.** How did the IC50 turn out when `CC[C@@]1(N)C[C@H]1c1cccc(C(F)(F)F)c1` (relative stereo) [Example A-18, trans-1-ethyl-2-[3-(trifluoromethyl)phenyl]cyclo-propanamine hydrochloride] was run?
**A.** 0.1 to 1 µM

**Q.** For `CC[C@@]1(N)C[C@H]1c1ccc(C(F)(F)F)cc1` (relative stereo) [Example A-19, trans-1-ethyl-2-[4-(trifluoromethyl)phenyl]cyclo-propanamine hydrochloride], which IC50 is on record?
**A.** 0.1 to 1 µM

**Q.** Which IC50 does the source give for `CC[C@@]1(N)C[C@H]1c1cccc(OC)c1` (relative stereo) [Example A-23, trans-1-ethyl-2-[3-methoxyphenyl]cyclopro-panamine hydrochloride] here?
**A.** 0.1 to 1 µM

**Q.** How did the IC50 turn out when `CC[C@@]1(N)C[C@H]1c1ccccc1F` (relative stereo) [Example A-25, trans-1-ethyl-2-(2-fluorophenyl)cyclopropanamine hydrochloride] was run?
**A.** 0.1 to 1 µM

**Q.** With `CC[C@@]1(N)C[C@H]1c1ccccc1Cl` (relative stereo) [Example A-26, trans-1-ethyl-2-(2-chlorophenyl)-cyclopropanamine hydrochloride] as the molecule, how does the IC50 read?
**A.** 0.1 to 1 µM

**Q.** For `CC[C@@]1(N)C[C@H]1c1ccccc1Br` (relative stereo) [Example A-27, trans-1-ethyl-2-(2-bromophenyl)-cyclopropanamine hydrochloride], which IC50 is on record?
**A.** 0.1 to 1 µM

**Q.** `CC[C@@]1(N)C[C@H]1c1ccc(NC(=O)c2cccc(-c3ccccc3)c2)cc1` (relative stereo) [Example A-35] was tested. Which IC50 did it give?
**A.** < 0.1 µM

**Q.** `CC[C@@]1(N)C[C@H]1c1ccc(NC(=O)Cc2ccccc2)cc1` (relative stereo) [Example A-39, N-[4-[(trans-2-amino-2-ethyl-cyclopropyl]phenyl]-2-phenyl-acetamide hydrochloride] was tested. Which IC50 did it give?
**A.** < 0.1 µM

**Q.** Which IC50 does the source give for `CC[C@@]1(N)C[C@H]1c1cccc(N=[N+]=[N-])c1` (relative stereo) [Example A-49, trans-2-(3-Azidophenyl)-1-ethyl-cyclopropanamine hydrochloride] here?
**A.** < 0.1 µM

**Q.** How did the IC50 turn out when `N[C@@]1(CCc2ccccc2)C[C@@H]1c1cccc(Br)c1` (relative stereo) [Example A-51, trans 2-(3-bromophenyl)-1-phenethyl-cyclopropanamine hydrochloride] was run?
**A.** < 0.1 µM

**Q.** How did the IC50 turn out when `N[C@]1(Cc2ccc3ccccc3c2)C[C@H]1c1ccc(F)cc1` (relative stereo) [Example A-54, trans-2-(4-fluorophenyl)-1-(2-naphthylmethyl)cyclo-propanamine hydrochloride] was run?
**A.** 0.1 to 1 µM

**Q.** For `N[C@]1(Cc2ccc3ccccc3c2)C[C@H]1c1ccc(Cl)cc1` (relative stereo) [Example A-55, trans-2-(4-chlorophenyl)-1-(2-naphthylmethyl)cyclo-propanamine hydrochloride], which IC50 is on record?
**A.** 0.1 to 1 µM

**Q.** For `N[C@]1(Cc2ccc3ccccc3c2)C[C@H]1c1cccc(Cl)c1` (relative stereo) [Example A-56, trans-2-(3-chlorophenyl)-1-(2-naphthylmethyl)cyclo-propanamine hydrochloride], which IC50 is on record?
**A.** 0.1 to 1 µM

**Q.** For `N[C@]1(Cc2ccc3ccccc3c2)C[C@H]1c1cccc(Br)c1` (relative stereo) [Example A-57, trans-2-(3-bromophenyl)-1-(2-naphthylmethyl)cyclo-propanamine hydrochloride], which IC50 is on record?
**A.** 0.1 to 1 µM

**Q.** For `N[C@]1(CCc2ccccc2)C[C@H]1c1ccc(Cl)cc1` (relative stereo) [Example A-58, trans-2-(4-chlorophenyl)-1-phenethyl-cyclopropanamine hydrochloride], which IC50 is on record?
**A.** < 0.1 µM

**Q.** `N[C@]1(CCc2ccccc2)C[C@H]1c1ccc(F)cc1` (relative stereo) [Example A-59, trans-2-(4-fluorophenyl)-1-phenethyl-cyclopropanamine hydrochloride] was tested. Which IC50 did it give?
**A.** 0.1 to 1 µM

**Q.** `N[C@]1(Cc2ccccc2)C[C@H]1c1ccc(F)cc1` (relative stereo) [Example A-60, trans-1-benzyl-2-(4-fluorophenyl)cyclo-propanamine] was tested. Which IC50 did it give?
**A.** 0.1 to 1 µM

**Q.** Which IC50 does the source give for `N[C@]1(Cc2ccccc2)C[C@H]1c1ccc(Cl)cc1` (relative stereo) [Example A-61, trans-1-benzyl-2-(4-chlorophenyl)cyclo-propanamine hydrochloride] here?
**A.** 0.1 to 1 µM

**Q.** `N[C@]1(CCc2ccccc2)C[C@H]1c1ccc(Br)cc1` (relative stereo) [Example A-62, trans 2-(4-bromophenyl)-1-phenethyl-cyclopropanamine 2,2,2-trifluoroacetic acid] was tested. Which IC50 did it give?
**A.** 0.1 to 1 µM

**Q.** With `CC[C@@]1(N)C[C@H]1c1ccc(NC(=O)c2ccc(-c3ccccc3)c(NC3CCN(C)CC3)c2)cc1` (relative stereo) [Example A-66, N-[4-(trans-2-amino-2-ethyl-cyclopropyl)phenyl]-3-[(1-methyl-4-piperidyl)amino]-4-phenyl-benzamide dihydrochloride] as the molecule, how does the IC50 read?
**A.** < 0.1 µM

**Q.** Which IC50 does the source give for `CC[C@@]1(N)C[C@H]1c1ccc(NC(=O)Cc2ccc([N+](=O)[O-])cc2)cc1` (relative stereo) [Example A-69, N-[4-trans-[2-amino-2-ethyl-cyclopropyl]phenyl]-2-(4-nitrophenyl) acetamide hydrochloride] here?
**A.** < 0.1 µM

**Q.** `CC[C@@]1(N)C[C@H]1c1cccc(NC(=O)c2ccccc2)c1` (relative stereo) [Example A-93, N-[3-[trans-2-amino-2-ethyl-cyclopropyl]phenyl] benzamide hydrochloride] was tested. Which IC50 did it give?
**A.** 0.1 to 1 µM

**Q.** How did the IC50 turn out when `CC[C@@]1(N)C[C@H]1c1ccc(NC(=O)Cc2cccc3ccccc23)c(F)c1` (relative stereo) [Example A-94, N-[4-[trans-2-amino-2-ethyl-cyclopropyl]-2-fluoro-phenyl]-2-(1-naphthyl) acetamide hydrochloride] was run?
**A.** < 0.1 µM

**Q.** Which IC50 does the source give for `CC[C@@]1(N)C[C@H]1c1ccc(NC(=O)c2ccc(N3CCN(C)CC3)cc2)c(F)c1` (relative stereo) [Example A-96, N-[4-[trans-2-amino-2-ethyl-cyclopropyl]-2-fluoro-phenyl]-4-(4-methylpiperazin-1-yl)benzamide 2,2,2-trifluoroacetic acid] here?
**A.** 0.1 to 1 µM

**Q.** How did the IC50 turn out when `CC[C@@]1(N)C[C@H]1c1ccc(NC(=O)c2ccc(C3CCN(C)CC3)cc2)cc1` (relative stereo) [Example A-100, N-[4-[trans-2-amino-2-ethyl-cyclopropyl]phenyl]-4-(1-methyl-4-piperidyl)benzamide 2,2,2-trifluoroacetic acid] was run?
**A.** < 0.1 µM

**Q.** `CC[C@@]1(N)C[C@H]1c1ccc(NC(=O)c2ccc(-c3ccncc3)cc2)cc1` (relative stereo) [Example A-102, N-[4-(trans-2-amino-2-ethyl-cyclopropyl]phenyl)-4-(4-pyridyl) benzamide dihydrochloride] was tested. Which IC50 did it give?
**A.** < 0.1 µM

**Q.** Which IC50 does the source give for `N[C@]1(c2ccccc2)C[C@H]1c1ccc(NC(=O)c2cccc(Cl)c2)cc1` (relative stereo) [Example A-103, N-[4-(trans-2-amino-2-phenyl-cyclopropyl]phenyl]-3-chloro-benzamide hydrochloride] here?
**A.** < 0.1 µM

**Q.** Which IC50 does the source give for `N[C@]1(c2ccccc2)C[C@H]1c1ccc(NC(=O)Cc2cccc3ccccc23)cc1` (relative stereo) [Example A-104, N-[4-(trans-2-amino-2-phenyl-cyclopropyl)phenyl]-2-(1-naphthyl) acetamide hydrochloride] here?
**A.** < 0.1 µM

**Q.** Which IC50 does the source give for `N[C@]1(c2ccccc2)C[C@H]1c1ccc(NC(=O)Cc2ccccc2)cc1` (relative stereo) [Example A-105, N-[4-(trans-2-amino-2-phenyl-cyclopropyl)phenyl]-2-phenyl-acetamide hydrochloride] here?
**A.** < 0.1 µM

**Q.** For `N[C@]1(c2ccccc2)C[C@H]1c1ccc(NC(=O)c2cccc(-c3ccccc3)c2)cc1` (relative stereo) [Example A-106, N-[4-(trans-2-amino-2-phenyl-cyclopropyl)phenyl]-3-phenyl-benzamide 2,2,2-trifluoroacetic acid], which IC50 is on record?
**A.** < 0.1 µM

same assay, conditions: IC50 [μM], KDM1A inhibition assay, 15 min preincubation, 4.5 μM mono-methylated H3-K4 peptide, range classes

**Q.** How did the IC50 turn out when `CC[C@@]1(N)C[C@H]1c1cccc(F)c1` (relative stereo) [Example A-20, trans-1-ethyl-2-(3-fluorophenyl)cyclopropanamine hydrochloride] was run?
**A.** < 0.1 µM

**Q.** For `CC[C@@]1(N)C[C@H]1c1cccc(Cl)c1` (relative stereo) [Example A-21, trans-1-ethyl-2-(3-chlorophenyl)-cyclopropanamine hydrochloride], which IC50 is on record?
**A.** < 0.1 µM

**Q.** How did the IC50 turn out when `CC[C@@]1(N)C[C@H]1c1cccc(Br)c1` (relative stereo) [Example A-22, trans-1-ethyl-2-(3-bromophenyl)-cycloproanamine hydrochloride] was run?
**A.** < 0.1 µM

**Q.** For `CC[C@@]1(N)C[C@H]1c1ccc(Br)c(F)c1` (relative stereo) [Example A-50, trans-2-(4-bromo-3-fluoro-phenyl)-1-ethyl-cyclopropanamine hydrochloride], which IC50 is on record?
**A.** < 0.1 µM
